Results: patent US8334266B2, “Process for and intermediates in the preparation of canfosfamide and its salts” (Telik, Inc., priority 2004, dated 2012)
Structures can show the parent of a compound that is named as a salt.

Assays:
[1] = tested on: ovarian, breast, non-small cell lung, and colorectal cancers; details: cited from earlier work
[2] = tested on: HL-60 (promyeloid myelocytic leukemia)
Description: (§1) The human cancer cell lines HL-60 (promyeloid myelocytic leukemia) and MX-1 (breast carcinoma) were obtained from the National Cancer Institute, Bethesda, Md., U.S.A. The CellTiter-Glo assay kit was obtained from Promega Corporation, Madison, Wis., U.S.A, and was used in accordance with the manufacturer's directions. All assays were conducted in triplicate wells, with dimethyl sulfoxide (DMSO) solvent control. The extent of cell growth was expressed as a percentage of the signal from the solvent control wells.
(§2) Log-phase cells were trypsinized, collected by centrifugation, and resuspended in a small volume of fresh medium, and the density of viable cells was determined following Trypan Blue staining. Cells were diluted in fresh media (5×10^3 cells/mL for HL-60 and 3×10^3 cells/mL for MX-1 cells), Compound 4A (concentrations between 0.1 and 200 μM, dissolved in DMSO, 50 μL) added immediately after dilution to achieve a final DMSO concentration of 0.5%, then the suspensions added at 150 μL/well to 96-well plates, and incubated for several hours to allow attachment in the case of adherent cells. The cells were cultured for approximately three doubling times (3 days). The cells were then collected by centrifugation, and 100 μL of the culture supernatant was replaced by the CellTiter-Glo reagent. After incubation for 15 minutes at room temperature, and the plate was read with a luminometer.

MX-1 (breast carcinoma) = details: MX-1, cultured 3 days, CellTiter-Glo
Description: as §1, §2

[3] = tested on: M6709 human colon carcinoma cell line selected for resistance to doxorubicin; details: resistant line overexpresses GST P1-1; cited from earlier work
[4] = tested on: MCF-7 human breast carcinoma cell line selected for resistance to cyclophosphamide; details: resistant line overexpresses GST P1-1; cited from earlier work
[5] = tested on: M7609 engineered to have high, medium, and low levels of GST P1-1; details: murine xenografts; cited from earlier work
[6] = tested on: in vitro cell culture and tumor biopsies; details: cited from earlier work

N[C@@H](CCC(=O)N[C@@H](CS(=O)(=O)CCOP(=O)(N(CCCl)CCCl)N(CCCl)CCCl)C(=O)N[C@@H](C(=O)O)c1ccccc1)C(=O)O [Canfosfamide hydrochloride]
hematological toxicity ([1]; patients treated): very low incidence of clinically significant hematological toxicity | antitumor activity ([1]; single agent, colorectal and breast cancer): single agent antitumor activity | antitumor activity and survival ([1]; single agent, patients with non-small cell lung cancer and ovarian cancer): significant single agent antitumor activity and improvement in survival

O=C(CC[C@H](NC(=O)OCc1ccccc1)C(=O)O)N[C@@H](CS(=O)(=O)CCOP(=O)(N(CCCl)CCCl)N(CCCl)CCCl)C(=O)N[C@@H](C(=O)O)c1ccccc1 [Compound 4A, N-α-(benzyloxycarbonyl)-L-γ-glutamyl-3-[[2-[[bis[bis(2-chloroethyl)amino]phosphinyl]oxy]-ethyl]sulfonyl]-L-alanyl-2-phenyl-(2R)-glycine]
IC50 ([2]; HL-60, cultured 3 days, CellTiter-Glo): 2.2 µM | potency compared with canfosfamide ([2]; in this assay (HL-60 and MX-1 cell lines)): approximately as potent as canfosfamide | IC50 (MX-1 (breast carcinoma)): 34.6 µM

N[C@@H](CCC(=O)N[C@@H](CS(=O)(=O)CCOP(=O)(N(CCCl)CCCl)N(CCCl)CCCl)C(=O)N[C@@H](C(=O)O)c1ccccc1)C(=O)O [canfosfamide, L-γ-glutamyl-3-[[2-[[bis[bis(2-chloroethyl)amino]phosphinyl]oxy]ethyl]sulfonyl]-L-alanyl-2-phenyl-(2R)-glycine]
potency relative to parental cell line [3]: more potent | potency relative to parental cell line [4]: more potent | potency in relation to GST P1-1 level [5]: positively correlated with the level of GST P1-1 | cross-resistance to platinum, paclitaxel, doxorubicin and gemcitabine [6]: non-cross-resistant
